# Reference: patent publication US5466671A, “Apidaecin-type peptide antibiotics with improved activities and/or different antibacterial spectrum” (priority 1994, dated 1995)
# Residues, ends and D or L forms follow the SMILES beside them.
# Legend:
# [1] = test system: Shigella dysenteriae; type: cell-based; settings: agar plate, 50 nanomoles/well, 3 mm wells
# [2] = test system: Rhizobium meliloti; assay: Inhibition zone assay (agar plate); type: cell-based; settings: 50 nanomoles/well, 3 mm wells
# [3] = test system: Salmonella typhi; type: cell-based; settings: agar plate, 50 nanomoles/well, 3 mm wells
# [4] = test system: Haemophilus influenzae; assay: Inhibition zone assay (agar plate); type: cell-based; settings: 50 nanomoles/well, 3 mm wells
# [5] = test system: Escherichia coli (ATCC11775); assay: Inhibition zone assay (agar plate); type: cell-based; settings: agar plate, 50 nanomoles/well, 3 mm wells
# [6] = test system: Salmonella typhimurium; assay: Inhibition zone assay (agar plate); type: cell-based; settings: agar plate, 50 nanomoles/well, 3 mm wells
# [7] = test system: Acinetobacter calcoaceticus; assay: Inhibition zone assay (agar plate); type: cell-based; settings: agar plate, 50 nanomoles/well, 3 mm wells
# [8] = test system: E. coli 11775; assay: Minimal inhibitory concentration (liquid culture); settings: for minimal inhibitory concentration (MIC): a-b = highest concentration with growth - lowest without growth
# [9] = test system: Agrobacterium tumefaciens; assay: Inhibition zone assay (agar plate); type: cell-based; settings: agar plate, 50 nanomoles/well, 3 mm wells
# [10] = test system: Escherichia coli (11775 Apid R); type: cell-based; settings: agar plate, 50 nanomoles/well, 3 mm wells
# [11] = test system: Legionella pneumophila; type: cell-based; settings: agar plate, 50 nanomoles/well, 3 mm wells
# [12] = test system: E. coli 23802; assay: Minimal inhibitory concentration (liquid culture); settings: inoculum 5000 CFU/ml; a-b = highest concentration with growth - lowest without growth
# [13] = test system: Morganella morganii; assay: Inhibition zone assay (agar plate); type: cell-based; settings: 50 nanomoles/well, 3 mm wells
# [14] = test system: Campylobacter jejuni; assay: Inhibition zone assay (agar plate); type: cell-based; settings: 50 nanomoles/well, 3 mm wells
# [15] = test system: E. coli 25922; assay: Minimal inhibitory concentration (liquid culture); settings: inoculum 1100 CFU/ml; a-b = highest concentration with growth - lowest without growth
# [16] = test system: Pseudomonas syringae; assay: Inhibition zone assay (agar plate); type: cell-based; settings: agar plate, 50 nanomoles/well, 3 mm wells
# [17] = test system: M. morganii; assay: Minimal inhibitory concentration (liquid culture); settings: inoculum 400 CFU/ml; a-b = highest concentration with growth - lowest without growth
# [18] = test system: A. calcoaceticus; assay: Minimal inhibitory concentration (liquid culture); settings: inoculum 16 × 10^6 CFU/ml; a-b = highest concentration with growth - lowest without growth
# [19] = test system: Enterobacter cloacae; assay: Inhibition zone assay (agar plate); type: cell-based; settings: agar plate, 50 nanomoles/well, 3 mm wells
# [20] = test system: Escherichia coli (K514); type: cell-based; settings: agar plate, 50 nanomoles/well, 3 mm wells
# [21] = test system: Erwinia amylovora; assay: Inhibition zone assay (agar plate); type: cell-based; settings: agar plate, 50 nanomoles/well, 3 mm wells
# [22] = test system: S. typhimurium; assay: Minimal inhibitory concentration (liquid culture); settings: inoculum 8 × 10^6 CFU/ml; a-b = highest concentration with growth - lowest without growth
# [23] = test system: E. coli Apid^R; assay: Minimal inhibitory concentration (liquid culture); type: cell-based; settings: a-b = highest concentration with growth - lowest without growth
# Source text: For details see `Experimental Procedures`.
# [24] = test system: Y. enterocolitica; assay: Minimal inhibitory concentration (liquid culture); settings: inoculum 5000 CFU/ml; a-b = highest concentration with growth - lowest without growth
# [25] = test system: Klebsiella pneumoniae; assay: Inhibition zone assay (agar plate); type: cell-based; settings: agar plate, 50 nanomoles/well, 3 mm wells
SMILES,inhibition zone diameter (number of plus signs) [2],inhibition zone diameter (number of plus signs) [4],inhibition zone diameter (number of plus signs) [5],inhibition zone diameter (number of plus signs) [6],inhibition zone diameter (number of plus signs) [7],minimal inhibitory concentration (MIC) ([8]; inoculum 16 × 10^6 CFU/ml) [µg/mL],minimal inhibitory concentration (MIC) ([8]; inoculum 1200 CFU/ml) [µg/mL],inhibition zone diameter (number of plus signs) [9],inhibition zone diameter (number of plus signs) [10],inhibition zone diameter (number of plus signs) [11],minimal inhibitory concentration (MIC) [12] [µg/mL],inhibition zone diameter (number of plus signs) [13],inhibition zone diameter (number of plus signs) [14],minimal inhibitory concentration (MIC) [15] [µg/mL],inhibition zone diameter (number of plus signs) [16],minimal inhibitory concentration (MIC) [17] [µg/mL],minimal inhibitory concentration (MIC) [18] [µg/mL],inhibition zone diameter (number of plus signs) [19],inhibition zone diameter (number of plus signs) [20],inhibition zone diameter (number of plus signs) [21],further results
"CC[C@H](C)[C@H](NC(=O)[C@@H]1CCCN1C(=O)[C@H](C)NC(=O)[C@@H]1CCCN1C(=O)[C@H](CCCNC(=N)N)NC(=O)[C@@H]1CCCN1C(=O)[C@H](CCCCN)NC(=O)[C@@H](N)CC(N)=O)C(=O)N[C@@H](CCCCN)C(=O)N1CCC[C@H]1C(=O)N[C@@H](CCCNC(=N)N)C(=O)N1CCC[C@H]1C(=O)N1CCC[C@H]1C(=O)N[C@@H](Cc1c[nH]cn1)C(=O)N1CCC[C@H]1C(=O)N[C@@H](CCCNC(=N)N)C(=O)N[C@@H](CC(C)C)C(=O)O [Cd 2-, Asn--Lys--Pro--Arg--Pro--Ala--Pro--Ile--Lys--Pro--Arg--Pro--Pro--His--Pro--Arg--Leu] (H-NKPRPAPIKPRPPHPRL-OH)",+++ ((+++) 10-14 mm),++ ((++) 7-9 mm),+++ ((+++) 10-14 mm),+ ((+) 5-6 mm),+ ((+) 5-6 mm),0.5 to 1,0.5 to 1,++++ ((++++) 15-19 mm),++ ((++) 7-9 mm),++ ((++) 7-9 mm),10 to 20,++ ((++) 7-9 mm),+++ ((+++) 10-14 mm),0.5 to 1,+++ ((+++) 10-14 mm),1 to 5,10 to 20,+++ ((+++) 10-14 mm),++ ((++) 7-9 mm),+++ ((+++) 10-14 mm),inhibition zone diameter (number of plus signs) [1]: ++ ((++) 7-9 mm); inhibition zone diameter (number of plus signs) [3]: + ((+) 5-6 mm); minimal inhibitory concentration (MIC) [22]: 1 to 5 µg/mL; minimal inhibitory concentration (MIC) ([23]; inoculum 1000 CFU/ml): 5 to 10 µg/mL; minimal inhibitory concentration (MIC) [24]: > 40 µg/mL; inhibition zone diameter (number of plus signs) [25]: ++ ((++) 7-9 mm)
"CC[C@H](C)[C@H](NC(=O)[C@@H]1CCCN1C(=O)[C@H](C)NC(=O)[C@@H]1CCCN1C(=O)[C@H](CCCNC(=N)N)NC(=O)[C@@H]1CCCN1C(=O)[C@H](CCCCN)NC(=O)[C@@H](N)CO)C(=O)N[C@@H](CCCCN)C(=O)N1CCC[C@H]1C(=O)N[C@@H](CCCNC(=N)N)C(=O)N1CCC[C@H]1C(=O)N1CCC[C@H]1C(=O)N[C@@H](Cc1c[nH]cn1)C(=O)N1CCC[C@H]1C(=O)N[C@@H](CCCNC(=N)N)C(=O)N[C@@H](CC(C)C)C(=O)O [Cd 3-, Ser--Lys--Pro--Arg--Pro--Ala--Pro--Ile--Lys--Pro--Arg--Pro--Pro--His--Pro--Arg--Leu] (H-SKPRPAPIKPRPPHPRL-OH)",++++ ((++++) 15-19 mm),+++ ((+++) 10-14 mm),++ ((++) 7-9 mm),++ ((++) 7-9 mm),+ ((+) 5-6 mm),0.5 to 1,0.1 to 0.5,++ ((++) 7-9 mm),++ ((++) 7-9 mm),++ ((++) 7-9 mm),5 to 10,++ ((++) 7-9 mm),++++ ((++++) 15-19 mm),0.5 to 1,++ ((++) 7-9 mm),1 to 5,10 to 20,+++ ((+++) 10-14 mm),+ ((+) 5-6 mm),+ ((+) 5-6 mm),inhibition zone diameter (number of plus signs) [1]: ++ ((++) 7-9 mm); minimal inhibitory concentration (MIC) [22]: 1 to 5 µg/mL; minimal inhibitory concentration (MIC) ([23]; inoculum 12 × 10^6 CFU/ml): 5 to 10 µg/mL; minimal inhibitory concentration (MIC) ([23]; inoculum 1000 CFU/ml): 5 to 10 µg/mL; minimal inhibitory concentration (MIC) [24]: 20 to 40 µg/mL; inhibition zone diameter (number of plus signs) [25]: ++ ((++) 7-9 mm)
"CC[C@H](C)[C@H](NC(=O)[C@@H]1CCCN1C(=O)[C@H](C)NC(=O)[C@@H]1CCCN1C(=O)[C@H](CCCNC(=N)N)NC(=O)[C@@H]1CCCN1C(=O)[C@H](CCCCN)NC(=O)[C@H](CO)NC(=O)[C@@H]1CCCN1C(=O)[C@H](CCCCN)NC(=O)CN)C(=O)N[C@@H](CCCCN)C(=O)N1CCC[C@H]1C(=O)N[C@@H](CCCNC(=N)N)C(=O)N1CCC[C@H]1C(=O)N1CCC[C@H]1C(=O)N[C@@H](Cc1c[nH]cn1)C(=O)N1CCC[C@H]1C(=O)N[C@@H](CCCNC(=N)N)C(=O)N[C@@H](CC(C)C)C(=O)O [Cd 3+, Gly--Lys--Pro--Ser--Lys--Pro--Arg--Pro--Ala--Pro--Ile--Lys--Pro--Arg--Pro--Pro--His--Pro--Arg--Leu] (H-GKPSKPRPAPIKPRPPHPRL-OH)",+++ ((+++) 10-14 mm),++++ ((++++) 15-19 mm),++ ((++) 7-9 mm),++ ((++) 7-9 mm),+ ((+) 5-6 mm),0.1 to 0.5,0.1 to 0.5,+++ ((+++) 10-14 mm),++ ((++) 7-9 mm),++ ((++) 7-9 mm),0.1 to 0.5,++ ((++) 7-9 mm),+++++ ((+++++) 20 or more min),0.1 to 0.5,++ ((++) 7-9 mm),1 to 5,10 to 20,+++ ((+++) 10-14 mm),+ ((+) 5-6 mm),+ ((+) 5-6 mm),"inhibition zone diameter (number of plus signs) [3]: ++ ((++) 7-9 mm); inoculum effect on inhibition of viability ([8]; inoculum sizes differing by four orders of magnitude): equally well; minimal inhibitory concentration (MIC) [22]: 0.1 to 0.5 µg/mL; minimal inhibitory concentration (MIC) ([23]; inoculum 12 × 10^6 CFU/ml): 0.5 to 1.5 µg/mL; minimal inhibitory concentration (MIC) ([23]; inoculum 12 × 10^6 CFU/ml, listed as Cd3+): measurable activities; minimal inhibitory concentration (MIC) ([23]; inoculum 1000 CFU/ml): 0.5 to 1 µg/mL; minimal inhibitory concentration (MIC) [24]: 10 to 20 µg/mL; inhibition zone diameter (number of plus signs) [25]: ++ ((++) 7-9 mm)"
